Data published in ChEMBL document CHEMBL2434927, “Indenoindoles and cyclopentacarbazoles as bioactive compounds: synthesis and biological applications” (Eur J Med Chem, 2013).

Experiments:
[1] = target: T1, NUAK family SNF1-like kinase 1 (Homo sapiens, UniProt O60285); experiment: Inhibition of human ARK5
T1 sequence (O60285 whole entry): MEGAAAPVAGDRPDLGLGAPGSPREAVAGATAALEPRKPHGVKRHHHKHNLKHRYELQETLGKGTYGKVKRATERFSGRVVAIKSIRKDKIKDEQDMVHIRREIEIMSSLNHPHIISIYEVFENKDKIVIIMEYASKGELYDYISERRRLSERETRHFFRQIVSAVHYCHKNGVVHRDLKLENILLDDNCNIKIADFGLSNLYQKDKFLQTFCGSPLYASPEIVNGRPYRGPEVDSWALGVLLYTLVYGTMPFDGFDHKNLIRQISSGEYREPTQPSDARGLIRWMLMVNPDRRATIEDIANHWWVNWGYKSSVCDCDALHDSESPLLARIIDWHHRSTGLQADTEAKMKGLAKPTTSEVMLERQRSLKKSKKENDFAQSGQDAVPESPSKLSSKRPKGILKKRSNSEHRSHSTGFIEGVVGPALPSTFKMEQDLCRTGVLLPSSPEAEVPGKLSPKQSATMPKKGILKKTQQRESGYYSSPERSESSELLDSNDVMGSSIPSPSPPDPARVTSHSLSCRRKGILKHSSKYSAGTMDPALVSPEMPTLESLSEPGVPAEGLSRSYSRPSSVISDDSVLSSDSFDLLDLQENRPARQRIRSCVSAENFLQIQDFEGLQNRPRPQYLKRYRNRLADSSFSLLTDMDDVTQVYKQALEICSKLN

MCF7 = experiment: Cytotoxicity against human MCF7 cells assessed as growth inhibition; type: functional
[2] = Cytotoxicity against human KYSE-70 cells assessed as growth inhibition; type: functional
5637 = experiment: Cytotoxicity against human 5637 cells assessed as growth inhibition; type: functional
A-427 = experiment: Cytotoxicity against human A427 cells assessed as growth inhibition; type: functional
[3] = Cytotoxicity against human LCLC cells assessed as growth inhibition; type: functional
[4] = target: T2, Receptor-type tyrosine-protein kinase FLT3 (Homo sapiens, UniProt P36888); experiment: Inhibition of human FLT3
T2 sequence (P36888 whole entry): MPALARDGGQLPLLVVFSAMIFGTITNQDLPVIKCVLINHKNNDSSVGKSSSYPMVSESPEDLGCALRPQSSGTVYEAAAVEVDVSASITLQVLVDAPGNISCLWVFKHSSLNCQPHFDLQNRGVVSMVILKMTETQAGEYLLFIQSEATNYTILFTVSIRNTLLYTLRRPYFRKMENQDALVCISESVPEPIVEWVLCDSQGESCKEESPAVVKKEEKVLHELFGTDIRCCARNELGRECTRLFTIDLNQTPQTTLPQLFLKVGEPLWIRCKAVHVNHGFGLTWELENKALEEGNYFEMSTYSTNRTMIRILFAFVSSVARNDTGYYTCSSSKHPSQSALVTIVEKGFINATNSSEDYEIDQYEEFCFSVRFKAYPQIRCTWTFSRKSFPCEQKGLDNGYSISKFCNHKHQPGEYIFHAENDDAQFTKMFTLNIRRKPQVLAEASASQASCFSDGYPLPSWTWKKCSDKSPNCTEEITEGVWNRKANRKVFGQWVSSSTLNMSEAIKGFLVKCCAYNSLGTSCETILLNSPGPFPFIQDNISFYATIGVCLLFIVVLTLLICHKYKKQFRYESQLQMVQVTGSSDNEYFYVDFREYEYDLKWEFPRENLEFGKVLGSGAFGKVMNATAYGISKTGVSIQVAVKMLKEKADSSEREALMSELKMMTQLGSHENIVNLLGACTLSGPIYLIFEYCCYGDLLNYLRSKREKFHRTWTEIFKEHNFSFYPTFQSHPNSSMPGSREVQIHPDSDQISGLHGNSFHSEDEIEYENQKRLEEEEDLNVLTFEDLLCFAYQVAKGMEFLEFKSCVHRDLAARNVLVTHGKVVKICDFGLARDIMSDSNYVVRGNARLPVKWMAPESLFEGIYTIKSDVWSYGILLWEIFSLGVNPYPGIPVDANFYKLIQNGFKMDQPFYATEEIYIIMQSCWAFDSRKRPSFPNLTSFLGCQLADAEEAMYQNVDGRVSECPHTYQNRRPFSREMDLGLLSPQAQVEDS

SISO = experiment: Cytotoxicity against human SISO cells assessed as growth inhibition; type: functional
MC-38 = experiment: Antitumor activity against mouse C38 cells allografted in B6D2F1 mouse assessed as tumor regression at 25 mg/kg, iv administered on days 10, 17 and 24 measured for 10 weeks relative to control; type: functional
Casein kinase II = Casein kinase II (Homo sapiens, UniProt P19784+P67870+P68400); experiment: Inhibition of human CK2; type: protein-complex assay
Casein kinase II, sequence (P67870 whole entry): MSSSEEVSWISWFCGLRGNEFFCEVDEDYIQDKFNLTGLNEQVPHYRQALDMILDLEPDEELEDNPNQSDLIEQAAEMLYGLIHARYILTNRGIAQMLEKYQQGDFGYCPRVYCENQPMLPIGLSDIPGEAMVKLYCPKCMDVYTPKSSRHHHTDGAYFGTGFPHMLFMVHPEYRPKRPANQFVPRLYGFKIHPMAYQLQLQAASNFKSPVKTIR
Casein kinase II, sequence (P68400 whole entry): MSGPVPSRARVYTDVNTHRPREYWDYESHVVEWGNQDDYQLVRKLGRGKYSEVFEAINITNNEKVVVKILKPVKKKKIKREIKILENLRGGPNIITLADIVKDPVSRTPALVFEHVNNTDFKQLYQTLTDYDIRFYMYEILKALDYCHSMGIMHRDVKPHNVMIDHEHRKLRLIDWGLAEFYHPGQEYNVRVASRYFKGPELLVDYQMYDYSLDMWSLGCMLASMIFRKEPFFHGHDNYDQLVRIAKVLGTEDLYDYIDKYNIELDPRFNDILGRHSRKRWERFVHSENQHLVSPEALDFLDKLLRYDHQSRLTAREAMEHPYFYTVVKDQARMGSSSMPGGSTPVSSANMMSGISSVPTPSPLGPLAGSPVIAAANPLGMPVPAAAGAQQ
Casein kinase II, sequence (P19784 whole entry): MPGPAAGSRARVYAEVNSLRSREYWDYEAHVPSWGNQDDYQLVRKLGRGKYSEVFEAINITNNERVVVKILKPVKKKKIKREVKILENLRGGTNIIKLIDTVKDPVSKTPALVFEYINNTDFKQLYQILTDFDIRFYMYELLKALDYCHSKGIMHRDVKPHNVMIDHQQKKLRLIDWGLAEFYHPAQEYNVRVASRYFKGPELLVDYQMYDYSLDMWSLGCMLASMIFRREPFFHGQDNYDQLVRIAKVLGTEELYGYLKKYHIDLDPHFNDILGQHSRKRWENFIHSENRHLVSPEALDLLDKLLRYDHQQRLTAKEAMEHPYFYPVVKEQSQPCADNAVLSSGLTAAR

`CC(C)n1c2c(c3c1-c1ccccc1C3=O)C(=O)CCC2=O` showed an IC50 [1] of 570 nM, a GI (MCF7) of 1.3 µM and a GI [2] of 1.3 µM. For the same compound, the GI 5637 was 1.3 µM, the GI (A-427) was 1.3 µM and the GI [3] was 1.3 µM. For the same compound, the IC50 [4] was 180 nM and the GI (SISO) was 1.3 µM.

`C#C[C@H](C)O/N=C1/c2cc(OC)c(OC)cc2-c2[nH]c3ccc(OCCN(C)C)cc3c21` gave an Activity (MC-38) of 100%.

`O=c1ccc(=O)c2c1c1c(=O)c3ccccc3c1n2Cc1ccccc1` gave an IC50 (Casein kinase II) of 1490 nM.
